Measured values: ChEMBL document CHEMBL4400559, “Exploiting the furo[2,3-b]pyridine core against multidrug-resistant Mycobacterium tuberculosis” (Bioorg Med Chem Lett, 2019)
In brackets after ≈: the same amount, converted by molar mass.

Tests used:
[1] = test system: Mycobacterium tuberculosis; experiment: Antibacterial activity against Mycobacterium tuberculosis H37Rv ATCC 27294 after 7 days by resazurin microtiter assay; format: functional; details: H37Rv ATCC 27294, 168 h
[2] = test system: MRC5; experiment: Cytotoxicity against human MRC5 cells after 24 hrs by resazurin dye-based fluorescence assay; format: cell-based; details: MRC5, 24 h
[3] = test system: J774.A1; experiment: Cytotoxicity against mouse J774A.1 cells after 24 hrs by resazurin dye-based fluorescence assay; format: cell-based; details: J774.A1, 24 h
[4] = Selectivity index, ratio of IC50 for human MRC5 cells to MIC90 for Mycobacterium tuberculosis H37Rv ATCC 27294; format: toxicity; details: read-out: Selectivity Index
[5] = Selectivity index, ratio of IC50 for mouse J774A.1 cells to MIC90 for Mycobacterium tuberculosis H37Rv ATCC 27294; format: toxicity; details: read-out: Selectivity Index

Structure (SMILES)	MIC90 [1] [µM]	IC50 [2] [µM]	IC50 [3] [µM]	selectivity ratio [4]	selectivity ratio [5]
CCOC(=O)c1c(C)oc2nc(N3CCN(c4ccccc4)CC3)ccc12	> 68.5	–	–	–	–
CCOC(=O)c1c(C(C)C)oc2nc(N3CCOCC3)ccc12	> 78.5	–	–	–	–
CCOC(=O)c1c(C)oc2nc(N3CC[C@@H](F)C3)ccc12	> 85.6	> 342	–	–	–
CC(C)c1oc2nc(N3CCCC3)ccc2c1C(=O)O	> 91.1	–	–	–	–
CCOC(=O)c1c(C(C)C)oc2nc(N3CCN(c4ccc(Cl)cc4)CC3)ccc12	> 58.5	–	–	–	–
CNC(=O)c1c(-c2ccc(O)cc2)oc2ccc(O)c(CN3CCCCC3)c12	0.09 (≈ 0.0342 µg/mL)	–	–	–	–
CCOC(=O)c1c(-c2ccccc2)oc2nc(N3CCCC3)ccc12	> 74.4	> 298	–	–	–
CCOC(=O)c1c(C(C)C)oc2nccc(N3CCOCC3)c12	> 78.5	–	215	–	–
CCOC(=O)c1c(-c2ccccc2)oc2ncc(N3CCCC3)cc12	> 74.4	> 298	–	–	–
CCOC(=O)c1c(C(C)C)oc2nc(N3CCN(c4ccccc4)CC3)ccc12	> 63.6	–	–	–	–
CNC(=O)c1c(C)oc2nc(N3CCCC3)ccc12	> 96.4	–	–	–	–
CCOC(=O)c1c(C)oc2nccc(N3CCN(c4ccccc4)CC3)c12	> 68.5	–	120	–	–
CCOC(=O)c1c(C)oc2nccc(N3CCOCC3)c12	> 86.1	–	> 314	–	–
CCOC(=O)c1c(C(C)C)oc2nccc(N3CCN(c4ccc(Cl)cc4)CC3)c12	> 58.5	–	> 234	–	–
CCOC(=O)c1c(C)oc2nc(N3CCCC3)ccc12	10.5 (≈ 2.88 µg/mL)	> 364	196	> 34.7	18.7
CCOC(=O)c1c(C)oc2nc(N3CCOCC3)ccc12	> 86.1	–	–	–	–

Structure (SMILES)	MIC90 [1] [µM]	IC50 [2] [µM]	IC50 [3] [µM]	selectivity ratio [4]	selectivity ratio [5]
CNC(=O)c1c(C(C)C)oc2nc(N3CCCC3)ccc12	> 87	–	–	–	–
CCOC(=O)c1c(C)oc2ncc(N3CCCC3)cc12	82.3 (≈ 22.6 µg/mL)	> 364	260	> 4.4	3.2
CCCSc1cnc2oc(C(C)C)c(C(=O)OCC)c2c1	> 81.3	–	–	–	–
CCOC(=O)c1c(C(C)C)oc2nc(N3CCCC3)ccc12	32.8 (≈ 9.92 µg/mL)	> 331	> 331	> 10.1	> 10.1
CCOC(=O)c1c(C(C)C)oc2nccc(N3CCN(c4ccccc4)CC3)c12	> 63.6	–	235	–	–
CCOC(=O)c1c(C)oc2ncc(N3CC[C@@H](F)C3)cc12	> 85.6	> 342	–	–	–
CCCCNc1cnc2oc(C(C)C)c(C(=O)OCC)c2c1	> 82.1	–	–	–	–
CCCSc1ccc2c(C(=O)OCC)c(C(C)C)oc2n1	> 81.3	–	–	–	–
Cc1oc2nc(N3CCCC3)ccc2c1C(=O)O	> 102	–	–	–	–
CCCCNc1ccc2c(C(=O)OCC)c(C(C)C)oc2n1	23.2 (≈ 7.06 µg/mL)	> 328	> 328	> 14.2	> 14.2
NCC[C@H](O)C(=O)N[C@@H]1C[C@H](N)[C@@H](O[C@H]2O[C@H](CN)[C@@H](O)[C@H](O)[C@H]2O)[C@H](O)[C@H]1O[C@H]1O[C@H](CO)[C@@H](O)[C@H](N)[C@H]1O [AMIKACIN]	0.4 (≈ 0.234 µg/mL)	–	–	–	–
N[C@@H]1CONC1=O [CYCLOSERINE]	37.1 (≈ 3.79 µg/mL)	–	–	–	–
CC[C@@H](CO)NCCN[C@@H](CC)CO [ETHAMBUTOL]	7 (≈ 1.43 µg/mL)	–	–	–	–
NNC(=O)c1ccncc1 [ISONIAZID]	0.8 (≈ 0.11 µg/mL)	–	–	–	–
COc1c(N2C[C@@H]3CCCN[C@@H]3C2)c(F)cc2c(=O)c(C(=O)O)cn(C3CC3)c12 [MOXIFLOXACIN]	< 0.2	–	–	–	–
CO[C@H]1/C=C/O[C@@]2(C)Oc3c(C)c(O)c4c(O)c(c(/C=N/N5CCN(C)CC5)c(O)c4c3C2=O)NC(=O)/C(C)=C\C=C\[C@H](C)[C@H](O)[C@@H](C)[C@@H](O)[C@@H](C)[C@H](OC(C)=O)[C@@H]1C [RIFAMPIN]	0.06 (≈ 0.0494 µg/mL)	–	–	–	–
